According to ChEMBL document CHEMBL1201862, “PubChem BioAssay data set” (2004):
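Results reflect a 48-hour exposure of cells in 96-well plates to compound at five concentrations. GI50 = concentration required for 50% inhibition of growth.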 Active and inactive are the calls of the source. Rule as the data show it: active = GI50 up to about 1.1 µM and inactive = higher.

Tests used:
Assay in all cases: NCI anticancer screen, dose series, 48 h
DLD-1 = tested on: DLD-1
DMS-114 = tested on: DMS-114
HOP-18 = tested on: HOP-18
KM-20L2 = tested on: KM-20L2
LXFL 529 = tested on: LXFL 529
M19-MEL = tested on: M19-MEL
RXF 631 = tested on: RXF 631
SNB-78 = tested on: SNB-78
XF498 = tested on: XF498

Measured: GI50

COc1ccc2nc3cc(Cl)ccc3c(Sc3ccc([N+](=O)[O-])cc3)c2c1
inactive: DLD-1 > 10 µM | DMS-114 > 10 µM | HOP-18 > 10 µM | KM-20L2 > 10 µM | LXFL 529 > 10 µM | M19-MEL > 10 µM | RXF 631 > 10 µM | SNB-78 > 10 µM | XF498 > 10 µM

CC(C)(C)c1cc(C(OCCl)(C(F)(F)F)C(F)(F)F)c2c(c1)C(C(F)(F)F)(C(F)(F)F)OC21c2ccccc2C(=O)c2ccccc21
inactive: DLD-1 > 100 µM | DMS-114 > 100 µM | HOP-18 > 100 µM | KM-20L2 > 100 µM | LXFL 529 > 100 µM | M19-MEL > 100 µM | RXF 631 > 100 µM | SNB-78 > 100 µM | XF498 34 µM

CCOC(=O)/C(=C\c1ccc[nH]1)C(=O)c1ccccc1
inactive: DLD-1 > 100 µM | DMS-114 34.3 µM | HOP-18 78.9 µM | KM-20L2 > 100 µM | LXFL 529 > 100 µM | M19-MEL > 100 µM | RXF 631 > 100 µM | SNB-78 > 100 µM | XF498 > 100 µM

c1ccc([P+](CCC[P+](c2ccccc2)(c2ccccc2)c2ccccc2)(c2ccccc2)c2ccccc2)cc1
inactive: DLD-1 56.6 µM | DMS-114 16.5 µM | HOP-18 54.7 µM | KM-20L2 33.5 µM | LXFL 529 11.3 µM | M19-MEL 19.9 µM | RXF 631 > 100 µM | SNB-78 52.8 µM | XF498 23.7 µM

COc1ccccc1NC(=O)C1=C(C)NC(C)=C(C(=O)Nc2ccccc2OC)C1c1cccc2ccccc12
inactive: DLD-1 38.7 µM | DMS-114 25.6 µM | HOP-18 76.7 µM | KM-20L2 > 100 µM | LXFL 529 28.1 µM | M19-MEL 90.4 µM | RXF 631 87.9 µM | SNB-78 4.44 µM | XF498 45.3 µM

CCO/C(CCn1[nH]c(=O)c(Cl)c(Cl)c1=O)=N\NC(=O)C(=O)NN
inactive: DLD-1 > 100 µM | DMS-114 > 100 µM | HOP-18 > 100 µM | KM-20L2 > 100 µM | LXFL 529 > 100 µM | M19-MEL > 100 µM | RXF 631 > 100 µM | XF498 > 100 µM

O=C1c2c(n(Cc3ccccc3)c(=O)n2Cc2ccccc2)C(=O)N1Cc1ccccc1
inactive: DLD-1 63 µM | DMS-114 34.6 µM | HOP-18 > 100 µM | KM-20L2 52.7 µM | LXFL 529 35 µM | M19-MEL > 100 µM | RXF 631 62.7 µM | SNB-78 > 100 µM | XF498 16.4 µM

CCOC(=O)NC(=O)c1cn(CCN2CCN(c3ncnc4[nH]cnc34)CC2)c(=O)[nH]c1=O
inactive: DLD-1 > 100 µM | DMS-114 > 100 µM | HOP-18 > 100 µM | KM-20L2 > 100 µM | LXFL 529 > 100 µM | M19-MEL > 100 µM | RXF 631 > 100 µM | XF498 > 100 µM

O=C(CCCCCCCCCCc1ccccc1)c1c(O)cccc1O
inactive: DLD-1 21.3 µM | DMS-114 20.7 µM | HOP-18 29.1 µM | KM-20L2 61.7 µM | LXFL 529 18.6 µM | M19-MEL 20.7 µM | RXF 631 30.8 µM | SNB-78 45.7 µM | XF498 20.2 µM
